These results are taken from patent US9890142B2, “PDE4 inhibitor” (Meiji Seika Pharma Co., Ltd., priority 2013, dated 2018).

In this assay the test system is PDE4. The assay can be described thus: Evaluation of PDE4 inhibition (scintillation proximity assay). It is filed as biochemical. To be noted: inhibition rate relative to control, test compound at 1 μM. As to the method: Test Example 1 Evaluation of PDE4 Inhibition
The PDE4 inhibitory activity was measured by using scintillation proximity assay (SPA) as follows: one in which a sample compound dissolved in dimethyl sulfoxide was diluted 10-fold with a buffer solution for reaction containing 50 mM Tris-HCl, pH 7.5, 8.3 mM MgCl2, 1.7 mM EDTA and 0.3 mg/mL bovine serum albumin (BSA) was added at 10 μL/well to a 96-well assay plate. Further, PDE4 diluted 750-fold with a buffer solution for reaction was added at 50 μL/well, then [2,8-^3H]-Adenosine-3′,5′-cyclic phosphate triethylammonium salt diluted 1000-fold with a buffer solution for reaction was added at 40 μL/well, and the plate was left standing at room temperature for 120 minutes. Thereafter, a suspension of RNA binding YSi-SPA Beads containing 200 mM ZnSO4 was added at 50 μL/well, and the plate was left standing at room temperature for 15 minutes to adsorb the enzyme reaction product onto the Beads. Thereafter, the radioactivity was measured with a liquid scintillation counter for 96-well plates. When one supplemented with only a buffer solution for reaction without adding the enzyme preparation was used as a blank and one supplemented with the enzyme preparation but supplemented with only dimethyl sulfoxide instead of the sample solution was used as a control, the inhibition rate of the test compound relative to the control was calculated according to the following calculation expression: Inhibition rate (%)={1−(Numeric value from the addition of each sample−Blank value)/(Control value−Blank value)}×100
In general terms: Scintillation proximity formats need no separation of bound from free tracer.

In the case of `C[C@H]1CNCCN1c1nc2cc(C#N)cc(-c3ccccn3)c2o1` [Example 111, (S)-5-Cyano-2-(2-methylpiperazin-1-yl)-7-(pyridin-2-yl)benzoxazole], the “PDE4 inhibitory activity (1 μM (%))” value stood at 83%. The value for `C[C@H]1CNCCN1c1nc2cc(Cl)c(F)c(-n3cccn3)c2o1` [Example 94, (S)-5-Chloro-6-fluoro-2-(2-methylpiperazin-1-yl)-7-(1H-pyrazol-1-yl)benzoxazole] was 62%; that for `COc1cc2oc(N3CCNC[C@@H]3C)nc2cc1Cl` [Example 171, (S)-5-Chloro-6-methoxy-2-(2-methylpiperazin-1-yl)benzoxazole] was 14%; that for `C[C@H]1CNCCN1c1nc2c(F)c(F)c(F)c(-n3cccn3)c2o1` [Example 124, (S)-4,5,6-Trifluoro-2-(2-methylpiperazin-1-yl)-7-(1H-pyrazol-1-yl)benzoxazole] was 46%. On to `CCN(CC)c1cc(Cl)cc2nc(N3CCNC[C@@H]3C)oc12` [Example 25, (S)-5-Chloro-7-diethylamino-2-(2-methylpiperazin-1-yl)benzoxazole], for which the “PDE4 inhibitory activity (1 μM (%))” value amounted to 53%. The value for `C[C@H]1CNCCN1c1nc2c(F)c(F)cc(-c3nccs3)c2o1` [Example 90, (S)-4,5-Difluoro-2-(2-methylpiperazin-1-yl)-7-(thiazol-2-yl)benzoxazole] was 96%; that for `C[C@H]1CNCCN1c1nc2cc(Cl)cc(-c3ncc(C#N)s3)c2o1` [Example 62, (S)-5-Chloro-7-(5-cyanothiazol-2-yl)-2-(2-methylpiperazin-1-yl)benzoxazole] was 65%. For `C[C@@H]1CNCCN1c1nc2c(OC(F)(F)F)c(Cl)cc(-c3nccs3)c2o1` [Example 158, (R)-5-Chloro-2-(2-methylpiperazin-1-yl)-7-(thiazol-2-yl)-4-(trifluoromethoxy)benzoxazole], the “PDE4 inhibitory activity (1 μM (%))” value is recorded as 88%. The result for `C[C@H]1CNCCN1c1nc2cc(Cl)cc(C3=NCCO3)c2o1` [Example 106, (S)-5-Chloro-7-(4,5-dihydro-oxazol-2-yl)-2-(2-methylpiperazin-1-yl)benzoxazole] reads 42%; that for `C[C@@H]1CNCCN1c1nc2c(C(F)(F)F)c(Cl)cc(-n3cccn3)c2o1` [Example 180, (R)-5-Chloro-2-(2-methylpiperazin-1-yl)=7-(1H-pyrazol-1-yl)-4-(trifluoromethyl)benzoxazole], 43%. As for `C[C@H]1CNCCN1c1nc2c(F)c(F)c(F)c(-c3nccs3)c2o1` [Example 123, (S)-4,5,6-Trifluoro-2-(2-methylpiperazin-1-yl)-7-(thiazol-2-yl)benzoxazole], the “PDE4 inhibitory activity (1 μM (%))” value is on record as 95%. In the case of `C[C@H]1CNCCN1c1nc2c(OC(F)(F)F)c(Cl)cc(-c3ccccn3)c2o1` [Example 86, (S)-5-Chloro-2-(2-methylpiperazin-1-yl)-7-(pyridin-2-yl)-4-(trifluoromethoxy)benzoxazole], the “PDE4 inhibitory activity (1 μM (%))” value worked out at 91%.

As for `C[C@H]1CNCCN1c1nc2cc(Cl)cc(Br)c2o1` [Example 110, (S)-7-Bromo-5-chloro-2-(2-methylpiperazin-1-yl)benzoxazole], the “PDE4 inhibitory activity (1 μM (%))” value is listed as 57%.

With `CC(C)Oc1cc(Cl)cc2nc(N3CCNC[C@@H]3C)oc12` [Example 7, (S)-5-Chloro-7-isopropoxy-2-(2-methylpiperazin-1-yl)benzoxazole], the “PDE4 inhibitory activity (1 μM (%))” value came out at 59%.

Regarding `C[C@H]1CNCCN1c1nc2cc(Cl)cc(-c3ncc([N+](=O)[O-])s3)c2o1` [Example 78, (S)-5-Chloro-2-(2-methylpiperazin-1-yl)-7-(5-nitrothiazol-2-yl)benzoxazole], the “PDE4 inhibitory activity (1 μM (%))” value came to 58%. With `C[C@H]1CNCCN1c1nc2cc(Cl)c(I)c(-c3ccccn3)c2o1` [Example 147, (S)-5-Chloro-6-iodo-2-(2-methylpiperazin-1-yl)-7-(pyridin-2-yl)benz oxazole], the “PDE4 inhibitory activity (1 μM (%))” value was 53%. The value for `C[C@H]1CNCCN1c1nc2cc(Cl)cc(N(C)C)c2o1` [Example 26, (S)-5-Chloro-7-dimethylamino-2-(2-methylpiperazin-1-yl)benzoxazole] was 61%. The result for `C[C@@H]1CN(c2nc3c(OC(F)(F)F)c(Cl)cc(-c4nccs4)c3o2)CCN1` [Example 176, (R)-5-Chloro-2-(3-methylpiperazin-1-yl)-7-(thiazol-2-yl)-4-(trifluoromethoxy)benzoxazole] reads 91%; that for `CCOC(=O)c1cc(Cl)cc2nc(N3CCNC[C@@H]3C)oc12` [Example 9, (S)-5-Chloro-7-ethoxycarbonyl-2-(2-methylpiperazin-1-yl)benzoxazole], 50%. The result for `C[C@H]1CNCCN1c1nc2cc(Cl)cc(-c3cncs3)c2o1` [Example 38, (S)-5-Chloro-2-(2-methylpiperazin-1-yl)-7-(thiazol-5-yl)benzoxazole] reads 68%; that for `C[C@@H]1CNCCN1c1nc2c(OC(F)(F)F)c(Cl)cc(-n3cccn3)c2o1` [Example 159, (R)-5-Chloro-2-(2-methylpiperazin-1-yl)-7-(1H-pyrazol-1-yl)-4-(trifluoromethoxy)benzoxazole], 57%; that for `COc1c(Cl)cc2nc(N3CCNC[C@@H]3C)oc2c1C` [Example 161, (S)-5-Chloro-6-methoxy-7-methyl-2-(2-methylpiperazin-1-yl)benzoxazole], 19%. `C[C@H]1CNCCN1c1nc2cc(Cl)cc(-c3ccoc3)c2o1` [Example 17, (S)-5-Chloro-7-(furan-3-yl)-2-(2-methylpiperazin-1-yl)benzoxazole]: the “PDE4 inhibitory activity (1 μM (%))” value turned out to be 84%. Take `C[C@H]1CNCCN1c1nc2cc(Cl)cc(CO)c2o1` [Example 15, (S)-5-Chloro-7-hydroxymethyl-2-(2-methylpiperazin-1-yl)benzoxazole]: the “PDE4 inhibitory activity (1 μM (%))” value turned out to be 21%. Regarding `COc1cc(Cl)cc2nc(N3CCNC[C@@H]3C)oc12` [Example 2, (S)-5-Chloro-7-methoxy-2-(2-methylpiperazin-1-yl)benzoxazole], the “PDE4 inhibitory activity (1 μM (%))” value turned out to be 23%. The value for `C[C@H]1CNCCN1c1nc2c(F)c(Cl)cc(-c3nccs3)c2o1` [Example 129, (S)-5-Chloro-4-fluoro-2-(2-methylpiperazin-1-yl)-7-(thiazol-2-yl)benzoxazole] was 97%; that for `CCCc1cc(Cl)cc2nc(N3CCNC[C@@H]3C)oc12` [Example 95, (S)-5-Chloro-2-(2-methylpiperazin-1-yl)-7-n-propylbenzoxazole] was 71%. Turning to `CNC(=O)c1cc(Cl)cc2nc(N3CCNC[C@@H]3C)oc12` [Example 100, (S)-5-Chloro-7-methylaminocarbonyl-2-(2-methylpiperazin-1-yl)benzoxazole], the “PDE4 inhibitory activity (1 μM (%))” value amounted to 16%. The result for `C[C@H]1CNCCN1c1nc2cc(Cl)cc(-c3ccsn3)c2o1` [Example 54, (S)-5-Chloro-7-(isothiazole-3-yl)-2-(2-methylpiperazin-1-yl)benzoxazole] reads 92%; that for `C[C@H]1CNCCN1c1nc2cc(Cl)cc(-c3ncccc3C#N)c2o1` [Example 66, (S)-5-Chloro-7-(3-cyanopyridin-2-yl)-2-(2-methylpiperazin-1-yl)benzoxazole], 57%. The result for `C[C@H]1CNCCN1c1nc2cc(Cl)cc(N3CCCC3=O)c2o1` [Example 71, (S)-5-Chloro-2-(2-methylpiperazin-1-yl)-7-(2-oxo-pyrrolidin-1-yl)benzoxazole] reads 30%. `COc1cc(C#N)cc2nc(N3CCNC[C@@H]3C)oc12` [Example 168, (S)-5-Cyano-7-methoxy-2-(2-methylpiperazin-1-yl)benzoxazole]: the “PDE4 inhibitory activity (1 μM (%))” value stood at 13%.

Turning to `C[C@H]1CNCCN1c1nc2cc(Cl)cc(-c3nccs3)c2o1` [Example 35, (S)-5-Chloro-2-(2-methylpiperazin-1-yl)-7-(thiazol-2-yl)benzoxazole], the “PDE4 inhibitory activity (1 μM (%))” value is on record as 96%. For the compound `C[C@H]1CNCCN1c1nc2c(S(C)(=O)=O)c(Cl)cc(-c3ccccn3)c2o1` [Example 151, (S)-5-Chloro-2-(2-methylpiperazin-1-yl)-4-(methylsulfonyl)-7-(pyridin-2-yl)benzoxazole], the “PDE4 inhibitory activity (1 μM (%))” value is recorded as 76%. The value for `C[C@H]1CNCCN1c1nc2cc(Cl)c(C(F)(F)F)c(-c3ccccn3)c2o1` [Example 85, (S)-5-Chloro-2-(2-methylpiperazin-1-yl)-7-(pyridin-2-yl)-6-(trifluoromethyl)benzoxazole] was 26%. In the case of `CCOc1cc(Cl)cc2nc(N3CCNC[C@@H]3C)oc12` [Example 29, (S)-5-Chloro-7-ethoxy-2-(2-methylpiperazin-1-yl)benzoxazole], the “PDE4 inhibitory activity (1 μM (%))” value is reported as 63%.

For `Cc1cc(Br)cc2nc(N3CCNC[C@@H]3C)oc12` [Example 6, (S)-5-Bromo-7-methyl-2-(2-methylpiperazin-1-yl)benzoxazole], the “PDE4 inhibitory activity (1 μM (%))” value worked out at 36%.
